Assay results: PubChem BioAssay (NCI)
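Protocol summary: plate cells (96-well), add compound at 5 concentrations, incubate 48 h, interpolate endpoints linearly. Here, GI50 denotes the concentration required for 50% inhibition of growth. TGI denotes the concentration required for complete inhibition of growth.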

Assays:
Experiment in all cases: growth of human tumour cells (NCI), 48 h
[1] = system: 786-0 renal
[2] = system: A498 renal
[3] = system: A549 NSCLC
[4] = system: ACHN renal
[5] = system: BT-549 breast
[6] = system: CAKI-1 renal
[7] = system: CCRF-CEM leukemia
[8] = system: COLO 205 colon
[9] = system: DU-145 prostate
[10] = system: EKVX NSCLC
[11] = system: HCC-2998 colon
[12] = system: HCT-116 colon
[13] = system: HCT-15 colon
[14] = system: HL-60(TB) leukemia
[15] = system: HOP-62 NSCLC
[16] = system: HOP-92 NSCLC
[17] = system: HS 578T breast
[18] = system: HT29 colon
[19] = system: IGROV1 ovarian
[20] = system: K-562 leukemia
[21] = system: KM12 colon
[22] = system: LOX IMVI melanoma
[23] = system: M14 melanoma
[24] = system: MALME-3M melanoma
[25] = system: MCF7 breast
[26] = system: MDA-MB-231 breast
[27] = system: MDA-MB-435
[28] = system: MOLT-4 leukemia
[29] = system: NCI-H226 lung
[30] = system: NCI-H23 lung
[31] = system: NCI-H460 lung
[32] = system: NCI-H522 lung
[33] = system: NCI/ADR-RES ovarian
[34] = system: OVCAR-3 ovarian
[35] = system: OVCAR-4 ovarian
[36] = system: OVCAR-5 ovarian
[37] = system: OVCAR-8 ovarian
[38] = system: PC-3 prostate
[39] = system: RPMI-8226 leukemia
[40] = system: RXF 393 renal
[41] = system: SF-268 CNS
[42] = system: SF-295 CNS
[43] = system: SF-539 CNS
[44] = system: SK-MEL-2 melanoma
[45] = system: SK-MEL-28 melanoma
[46] = system: SK-MEL-5 melanoma
[47] = system: SK-OV-3 ovarian
[48] = system: SN12C renal
[49] = system: SNB-19 CNS
[50] = system: SNB-75 CNS
[51] = system: SR leukemia
[52] = system: SW-620 colon
[53] = system: T-47D breast
[54] = system: TK-10 renal
[55] = system: U251 CNS
[56] = system: UACC-257 melanoma
[57] = system: UACC-62 melanoma
[58] = system: UO-31 renal

C#CCNCCCN1C(=O)c2ccc3c4c(ccc(c24)C1=O)C(=O)N(CCCNCC#C)C3=O
GI50 [1]: 778 nM
TGI [1]: 5360 nM
GI50 [2]: 312 nM
TGI [2]: 1410 nM
GI50 [3]: 134 nM
TGI [3]: 393 nM
GI50 [4]: 144 nM
TGI [4]: 1740 nM
GI50 [5]: 1440 nM
TGI [5]: 2890 nM
GI50 [6]: 237 nM
TGI [6]: 955 nM
GI50 [7]: 295 nM
TGI [7]: 2890 nM
GI50 [8]: 91.1 nM
TGI [8]: 238 nM
GI50 [9]: 219 nM
TGI [9]: 600 nM
GI50 [10]: 302 nM
TGI [10]: 1130 nM
GI50 [11]: 242 nM
TGI [11]: 766 nM
GI50 [12]: 157 nM
TGI [12]: 1950 nM
GI50 [13]: 206 nM
TGI [13]: 809 nM
GI50 [14]: 305 nM
TGI [14]: 988 nM
GI50 [15]: 267 nM
TGI [15]: 1560 nM
GI50 [16]: 1790 nM
TGI [16]: 7740 nM
GI50 [17]: 919 nM
TGI [17]: 4760 nM
GI50 [18]: 76.6 nM
TGI [18]: 539 nM
GI50 [19]: 187 nM
TGI [19]: 972 nM
GI50 [20]: 230 nM
TGI [20]: 1630 nM
GI50 [21]: 284 nM
TGI [21]: 1330 nM
GI50 [22]: 205 nM
TGI [22]: 637 nM
GI50 [23]: 317 nM
TGI [23]: 987 nM
GI50 [24]: 158 nM
TGI [24]: 373 nM
GI50 [25]: 132 nM
TGI [25]: 328 nM
GI50 [26]: 670 nM
TGI [26]: 5920 nM
GI50 [27]: 189 nM
TGI [27]: 404 nM
GI50 [28]: 188 nM
TGI [28]: 869 nM
GI50 [29]: 151 nM
TGI [29]: 551 nM
GI50 [30]: 220 nM
TGI [30]: 669 nM
GI50 [31]: 101 nM
TGI [31]: 363 nM
GI50 [32]: 251 nM
TGI [32]: 841 nM
GI50 [33]: 467 nM
TGI [33]: 3810 nM
GI50 [34]: 277 nM
TGI [34]: 957 nM
GI50 [35]: 137 nM
TGI [35]: 279 nM
GI50 [36]: 534 nM
TGI [36]: 2610 nM
GI50 [37]: 180 nM
TGI [37]: 1550 nM
GI50 [38]: 463 nM
TGI [38]: 4410 nM
GI50 [39]: 404 nM
TGI [39]: 4180 nM
GI50 [40]: 228 nM
TGI [40]: 1070 nM
GI50 [41]: 404 nM
TGI [41]: 3050 nM
GI50 [42]: 119 nM
TGI [42]: 514 nM
GI50 [43]: 470 nM
TGI [43]: 1750 nM
GI50 [44]: 244 nM
TGI [44]: 729 nM
GI50 [45]: 613 nM
TGI [45]: 2160 nM
GI50 [46]: 140 nM
TGI [46]: 274 nM
GI50 [47]: 645 nM
TGI [47]: 4320 nM
GI50 [48]: 214 nM
TGI [48]: 949 nM
GI50 [49]: 328 nM
TGI [49]: 1450 nM
GI50 [50]: 451 nM
TGI [50]: 1690 nM
GI50 [51]: 219 nM
TGI [51]: 1040 nM
GI50 [52]: 154 nM
TGI [52]: 992 nM
GI50 [53]: 1020 nM
TGI [53]: 3900 nM
GI50 [54]: 689 nM
TGI [54]: 6880 nM
GI50 [55]: 223 nM
TGI [55]: 1020 nM
GI50 [56]: 181 nM
TGI [56]: 342 nM
GI50 [57]: 384 nM
TGI [57]: 1070 nM
GI50 [58]: 260 nM
TGI [58]: 1380 nM
